Results from paper PMC2655680 (Nucleic Acids Research, 2009).
Where “and” joins values, the source holds several entries; their conditions need not be identical. Identical values can stand only once.

Target: PNK–FHA (FHA domain of human PNK, amino acids 1–109) (Homo sapiens, UniProt Q96T60)
Assay type: binding
Settings: ITC, peptide injected into PNK–FHA, 10°C, pH 7.5; floating variable of the fit

Sequence: YAGSTDENTDSE
- N (stoichiometry, estimated molar ratio peptide:PNK–FHA): 0.46 and 0.50 and 0.56 and 0.88 and 0.51
